According to ChEMBL document CHEMBL1201862, “PubChem BioAssay data set” (2004):
Active and inactive are the calls of the source.

Key:
[1] = biological target: DNA dC->dU-editing enzyme APOBEC-3G (Homo sapiens, UniProt Q9HC16); experiment: inhibition of APOBEC3G ssDNA deamination – biochemical, fluorescence, single-stranded DNA substrate, SAR follow-up (AID 602136); format: functional; conditions: read-out: IC50_Mean
[2] = biological target: DNA dC->dU-editing enzyme APOBEC-3A (Homo sapiens, UniProt P31941); experiment: SAR analysis of small molecule inhibitors of APOBEC3A DNA Deaminase via a fluorescence-based single-stranded DNA deaminase assay.; format: functional; conditions: read-out: IC50_Mean
[3] = biological target: Nuclear receptor subfamily 5 group A member 2 (Homo sapiens, UniProt O00482); format: functional, cell-based;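 also: HEK293T cells transfected with LRH-1 and a StAR promoter luciferase reporter; potency for inhibitors that lower LRH-1 driven reporter light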
Steroidogenic factor 1 = Steroidogenic factor 1 (Homo sapiens, UniProt Q13285); experiment: Counterscreen for inverse agonists of the liver receptor homolog-1 (LRH-1; NR5A2): Luminescence-based cell-based high throughput dose response assay to identify inverse agonists of the Steroidogenic Factor 1 Nuclear Receptor (SF1; NR5A1).; format: functional
[4] = nonselective StAR promoter luciferase inhibitors – cell-based, luminescence, luciferase reporter, counter-screen for LRH-1 inverse agonist project, dose response (AID 651969); format: functional
[5] = biological target: T1, High affinity choline transporter 1 (Homo sapiens, UniProt Q9GZV3); experiment: human choline transporter blockers, potency – cell-based, 5-point CRC, membrane potential dye, dose response (AID 504840); format: functional
T1 sequence (Q9GZV3 whole entry): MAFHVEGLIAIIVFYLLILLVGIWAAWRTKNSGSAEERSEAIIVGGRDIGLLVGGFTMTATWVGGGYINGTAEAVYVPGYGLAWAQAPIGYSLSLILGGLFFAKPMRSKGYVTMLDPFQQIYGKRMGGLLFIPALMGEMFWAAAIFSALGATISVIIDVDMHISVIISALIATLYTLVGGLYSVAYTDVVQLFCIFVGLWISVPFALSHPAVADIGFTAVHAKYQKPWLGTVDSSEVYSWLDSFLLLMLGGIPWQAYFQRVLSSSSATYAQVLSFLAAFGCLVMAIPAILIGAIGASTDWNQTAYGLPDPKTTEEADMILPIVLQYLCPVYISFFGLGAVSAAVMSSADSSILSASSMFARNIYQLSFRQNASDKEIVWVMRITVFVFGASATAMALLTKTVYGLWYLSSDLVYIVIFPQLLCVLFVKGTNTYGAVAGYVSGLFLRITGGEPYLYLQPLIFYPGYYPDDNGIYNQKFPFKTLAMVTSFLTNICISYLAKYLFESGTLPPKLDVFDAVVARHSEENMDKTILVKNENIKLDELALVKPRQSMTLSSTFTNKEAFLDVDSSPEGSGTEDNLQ

[6] = biological target: T1, High affinity choline transporter 1; experiment: human choline transporter blockers, potency – cell-based, 10-point CRC, membrane potential dye, dose response (AID 588401); format: functional;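 also: membrane potential dye fluorescence of choline-evoked depolarization via CHT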
[7] = system: Streptococcus sp. 'group A'; experiment: Streptococcus pyogenes SK(-)GAS viability under kanamycin – luminescence, BacTiterGlo, confirmation, counter-screen for streptokinase expression inhibitor project, dose response (AID 1900); format: functional, organism-based
Streptococcus = experiment: GAS UMAA2166 growth inhibition – luminescence, BacTiterGlo, counter-screen for streptokinase expression inhibitor project, dose response (AID 1915); format: functional, organism-based;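 also: potency for reduction of bacterial viability or growth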
Melanocortin receptor 4 = Melanocortin receptor 4 (Homo sapiens, UniProt P32245); format: functional, cell-based;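 also: Cell-based assay with luminescence read-out, confirmatory dose-response testing for agonist activity of biased ligands at MC4R; human U2OS cells with tagged receptor and beta-arrestin; potency of agonists that increase receptor coupling to beta-arrestin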
[8] = viability loss in HeLa cells – cytotoxicity control for MgcRacGAP inhibitor project, dose response (AID 624300); format: functional
[9] = biological target: T2, Rac GTPase-activating protein 1 (Homo sapiens, UniProt Q9H0H5); experiment: blockers of MgcRacGAP-driven Rac1 GTP hydrolysis – biochemical, ADP Hunter fluorescence, primary and confirmatory, confirmation (AID 624330); format: functional
T2 sequence (Q9H0H5 whole entry): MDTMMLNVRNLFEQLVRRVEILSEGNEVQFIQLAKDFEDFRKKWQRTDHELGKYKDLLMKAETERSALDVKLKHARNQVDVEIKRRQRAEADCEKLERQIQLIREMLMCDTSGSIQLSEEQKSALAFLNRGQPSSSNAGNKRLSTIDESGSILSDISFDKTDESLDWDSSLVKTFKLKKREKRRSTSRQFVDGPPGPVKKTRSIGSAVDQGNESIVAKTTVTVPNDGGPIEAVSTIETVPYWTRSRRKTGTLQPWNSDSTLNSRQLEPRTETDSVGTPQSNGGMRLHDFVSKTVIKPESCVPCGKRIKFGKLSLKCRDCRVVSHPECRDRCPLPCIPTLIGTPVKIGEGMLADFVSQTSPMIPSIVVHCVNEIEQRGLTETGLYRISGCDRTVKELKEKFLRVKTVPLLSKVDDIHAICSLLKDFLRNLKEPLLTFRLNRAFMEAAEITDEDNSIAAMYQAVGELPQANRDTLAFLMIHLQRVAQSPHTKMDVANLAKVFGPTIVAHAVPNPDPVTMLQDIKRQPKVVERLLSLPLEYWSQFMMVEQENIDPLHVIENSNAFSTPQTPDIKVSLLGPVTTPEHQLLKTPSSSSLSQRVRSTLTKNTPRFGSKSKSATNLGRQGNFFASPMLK

H9c2 = experiment: cells; format: functional, cell-based; conditions: Rattus norvegicus, H9c2, Myocardium;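 also: confirmatory concentration-response retest of ultra-high-throughput screening hits for modulation of myocardial damage; cell death induced by hydrogen peroxide oxidative stress; compound pretreatment for 60 min then peroxide exposure for 2 h; potency is for protecting the cells against peroxide damage rather than for killing them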
[10] = biological target: T3, Probable nicotinate-nucleotide adenylyltransferase (Staphylococcus aureus (strain N315), UniProt P65502); format: functional, Staphylococcus aureus subsp. aureus N315;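 as to IC50 Mean: confirmatory dose-response retesting of NadD inhibitor hits first found in an ultra-high-throughput screen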
[11] = biological target: T3, Probable nicotinate-nucleotide adenylyltransferase; format: functional, Staphylococcus aureus subsp. aureus N315; conditions: read-out: IC50_Mean
[12] = biological target: T4, Sentrin-specific protease 8 (Homo sapiens, UniProt Q96LD8); experiment: inhibition of human SENP8 cleavage activity – biochemical, luminescence, SAR follow-up (AID 504501); format: functional
T4 sequence (Q96LD8 whole entry): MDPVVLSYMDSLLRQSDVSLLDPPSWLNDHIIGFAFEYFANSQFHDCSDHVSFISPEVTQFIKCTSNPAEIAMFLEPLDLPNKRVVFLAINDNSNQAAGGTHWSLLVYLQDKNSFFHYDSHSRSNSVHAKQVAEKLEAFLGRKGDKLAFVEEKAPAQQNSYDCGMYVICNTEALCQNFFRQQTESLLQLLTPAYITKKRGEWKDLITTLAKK

Caspase-3 = biological target: T5, Caspase-3 (Homo sapiens, UniProt P42574); experiment: SAR Analysis of small molecule inhibitors of Sentrin-specific proteases (SENPs) using a Caspase-3 Selectivity assay. [Related pubchem assays (depositor defined):AID2540, AID2599, AID434973, AID489001]; format: functional
T5 sequence (P42574 whole entry): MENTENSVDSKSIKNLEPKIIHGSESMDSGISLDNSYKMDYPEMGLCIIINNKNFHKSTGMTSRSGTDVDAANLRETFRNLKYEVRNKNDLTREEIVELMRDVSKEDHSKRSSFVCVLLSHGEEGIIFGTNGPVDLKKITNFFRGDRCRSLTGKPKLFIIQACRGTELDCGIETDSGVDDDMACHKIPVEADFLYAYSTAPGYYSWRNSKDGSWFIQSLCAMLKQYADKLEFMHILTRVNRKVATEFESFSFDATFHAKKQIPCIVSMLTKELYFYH

[13] = biological target: T6, Sentrin-specific protease 6 (Homo sapiens, UniProt Q9GZR1); experiment: SAR Analysis of small molecule inhibitors of Sentrin-specific protease 6 (SENP6) using a Luminescent assay. [Related pubchem assays (depositor defined):AID2582, AID2599]; format: functional
T6 sequence (Q9GZR1 whole entry): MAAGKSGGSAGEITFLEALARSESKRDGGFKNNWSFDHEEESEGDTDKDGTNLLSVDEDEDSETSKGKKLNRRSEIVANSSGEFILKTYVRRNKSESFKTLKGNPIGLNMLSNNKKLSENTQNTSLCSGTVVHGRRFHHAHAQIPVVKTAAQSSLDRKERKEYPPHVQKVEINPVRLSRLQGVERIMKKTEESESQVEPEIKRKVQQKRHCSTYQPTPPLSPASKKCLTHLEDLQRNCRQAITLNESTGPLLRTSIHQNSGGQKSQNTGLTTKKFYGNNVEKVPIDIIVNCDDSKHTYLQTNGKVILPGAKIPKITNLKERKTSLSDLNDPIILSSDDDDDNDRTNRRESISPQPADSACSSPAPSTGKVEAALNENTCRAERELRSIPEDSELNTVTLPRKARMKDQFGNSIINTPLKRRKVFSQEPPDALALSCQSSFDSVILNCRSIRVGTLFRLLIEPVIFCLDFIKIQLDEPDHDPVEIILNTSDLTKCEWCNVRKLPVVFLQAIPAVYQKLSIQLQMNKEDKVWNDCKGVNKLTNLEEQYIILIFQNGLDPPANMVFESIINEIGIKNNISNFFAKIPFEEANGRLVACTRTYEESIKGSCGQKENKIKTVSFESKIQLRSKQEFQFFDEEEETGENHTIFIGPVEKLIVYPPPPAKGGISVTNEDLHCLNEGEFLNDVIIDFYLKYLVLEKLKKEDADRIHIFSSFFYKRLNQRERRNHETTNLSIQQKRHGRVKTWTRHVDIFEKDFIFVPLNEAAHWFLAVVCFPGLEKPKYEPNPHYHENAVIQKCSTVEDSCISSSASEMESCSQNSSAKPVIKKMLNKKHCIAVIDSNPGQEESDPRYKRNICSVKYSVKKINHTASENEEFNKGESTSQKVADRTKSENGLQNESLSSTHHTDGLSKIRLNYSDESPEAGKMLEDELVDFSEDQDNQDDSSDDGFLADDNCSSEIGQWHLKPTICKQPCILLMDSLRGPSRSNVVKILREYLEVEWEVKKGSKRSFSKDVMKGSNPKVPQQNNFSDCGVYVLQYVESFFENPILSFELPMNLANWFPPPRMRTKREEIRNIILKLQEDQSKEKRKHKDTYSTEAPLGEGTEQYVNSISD

[14] = biological target: T7, Sentrin-specific protease 7 (Homo sapiens, UniProt Q9BQF6); experiment: inhibition of human SENP7 cleavage activity – biochemical, luminescence, SAR follow-up (AID 504497); format: functional
T7 sequence (Q9BQF6 whole entry): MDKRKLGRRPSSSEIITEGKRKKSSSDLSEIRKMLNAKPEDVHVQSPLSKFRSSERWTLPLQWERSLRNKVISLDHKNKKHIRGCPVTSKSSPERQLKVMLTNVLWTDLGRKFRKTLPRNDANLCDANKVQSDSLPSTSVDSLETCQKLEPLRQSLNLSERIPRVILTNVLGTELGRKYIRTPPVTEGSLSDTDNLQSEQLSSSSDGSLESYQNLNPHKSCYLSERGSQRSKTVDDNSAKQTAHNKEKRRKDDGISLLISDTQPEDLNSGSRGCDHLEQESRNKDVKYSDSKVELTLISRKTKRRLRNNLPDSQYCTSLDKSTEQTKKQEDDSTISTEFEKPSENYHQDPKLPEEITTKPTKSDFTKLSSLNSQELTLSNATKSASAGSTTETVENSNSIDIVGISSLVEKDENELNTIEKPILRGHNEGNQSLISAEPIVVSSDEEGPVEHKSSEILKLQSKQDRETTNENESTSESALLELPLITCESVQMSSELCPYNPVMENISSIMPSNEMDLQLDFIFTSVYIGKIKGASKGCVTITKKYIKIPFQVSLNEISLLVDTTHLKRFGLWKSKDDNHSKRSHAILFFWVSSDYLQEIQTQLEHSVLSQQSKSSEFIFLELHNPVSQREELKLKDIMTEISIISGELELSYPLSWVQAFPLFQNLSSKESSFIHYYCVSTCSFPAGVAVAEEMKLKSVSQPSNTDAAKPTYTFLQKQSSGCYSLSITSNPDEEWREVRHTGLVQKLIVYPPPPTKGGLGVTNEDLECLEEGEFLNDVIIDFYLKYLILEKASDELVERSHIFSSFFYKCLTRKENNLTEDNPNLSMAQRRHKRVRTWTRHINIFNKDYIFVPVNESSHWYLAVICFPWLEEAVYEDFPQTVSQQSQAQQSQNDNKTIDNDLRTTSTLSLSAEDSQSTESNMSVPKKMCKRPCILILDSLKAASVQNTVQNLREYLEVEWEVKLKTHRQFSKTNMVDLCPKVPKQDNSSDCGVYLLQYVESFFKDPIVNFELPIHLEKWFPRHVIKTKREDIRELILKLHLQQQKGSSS

Sequence of DNA dC->dU-editing enzyme APOBEC-3A (P31941 whole entry): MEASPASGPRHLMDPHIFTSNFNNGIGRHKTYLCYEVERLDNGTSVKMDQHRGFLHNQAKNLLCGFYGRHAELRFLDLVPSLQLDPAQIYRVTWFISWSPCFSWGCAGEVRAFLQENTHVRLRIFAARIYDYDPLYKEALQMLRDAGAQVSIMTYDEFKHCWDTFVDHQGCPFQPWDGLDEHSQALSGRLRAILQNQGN
Sequence of DNA dC->dU-editing enzyme APOBEC-3G (Q9HC16 whole entry): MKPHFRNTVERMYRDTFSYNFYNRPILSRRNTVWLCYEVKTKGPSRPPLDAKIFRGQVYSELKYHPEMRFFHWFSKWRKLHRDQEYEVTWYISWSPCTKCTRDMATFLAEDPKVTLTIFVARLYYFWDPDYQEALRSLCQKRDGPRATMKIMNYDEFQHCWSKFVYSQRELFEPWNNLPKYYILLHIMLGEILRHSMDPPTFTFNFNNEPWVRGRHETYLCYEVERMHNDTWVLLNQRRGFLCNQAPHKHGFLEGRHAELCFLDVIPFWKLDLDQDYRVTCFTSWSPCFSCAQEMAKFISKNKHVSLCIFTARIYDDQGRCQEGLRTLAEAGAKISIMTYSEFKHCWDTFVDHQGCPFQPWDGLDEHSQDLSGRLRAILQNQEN
Sequence of Melanocortin receptor 4 (P32245 whole entry): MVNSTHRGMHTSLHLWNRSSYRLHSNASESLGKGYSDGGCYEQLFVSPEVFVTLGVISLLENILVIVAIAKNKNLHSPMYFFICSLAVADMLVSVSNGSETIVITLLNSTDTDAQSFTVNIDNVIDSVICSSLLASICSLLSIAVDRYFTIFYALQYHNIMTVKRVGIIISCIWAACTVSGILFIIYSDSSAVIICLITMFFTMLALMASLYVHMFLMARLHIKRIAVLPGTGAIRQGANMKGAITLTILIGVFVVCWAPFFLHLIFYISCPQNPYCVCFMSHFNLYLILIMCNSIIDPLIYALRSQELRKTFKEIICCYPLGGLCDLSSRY
Sequence of Steroidogenic factor 1 (Q13285 whole entry): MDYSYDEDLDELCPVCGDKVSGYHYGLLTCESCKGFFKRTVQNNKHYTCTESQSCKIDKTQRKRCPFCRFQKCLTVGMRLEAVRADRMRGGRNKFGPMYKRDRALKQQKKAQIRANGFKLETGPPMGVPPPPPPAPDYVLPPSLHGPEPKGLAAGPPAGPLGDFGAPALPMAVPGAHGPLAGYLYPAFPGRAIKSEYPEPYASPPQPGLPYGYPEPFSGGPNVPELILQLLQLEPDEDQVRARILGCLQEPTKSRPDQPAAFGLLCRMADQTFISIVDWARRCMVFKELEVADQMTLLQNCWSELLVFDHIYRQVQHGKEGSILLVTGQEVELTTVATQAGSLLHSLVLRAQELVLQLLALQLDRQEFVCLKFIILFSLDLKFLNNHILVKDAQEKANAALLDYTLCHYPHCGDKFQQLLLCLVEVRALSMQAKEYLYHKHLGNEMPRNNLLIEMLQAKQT
T3 sequence (P65502 whole entry): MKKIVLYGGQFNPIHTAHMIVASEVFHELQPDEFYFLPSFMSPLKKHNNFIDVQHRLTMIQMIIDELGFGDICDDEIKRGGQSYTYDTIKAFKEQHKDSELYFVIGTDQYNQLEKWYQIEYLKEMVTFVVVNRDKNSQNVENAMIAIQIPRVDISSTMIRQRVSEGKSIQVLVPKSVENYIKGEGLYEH
Sequence of Nuclear receptor subfamily 5 group A member 2 (O00482 whole entry): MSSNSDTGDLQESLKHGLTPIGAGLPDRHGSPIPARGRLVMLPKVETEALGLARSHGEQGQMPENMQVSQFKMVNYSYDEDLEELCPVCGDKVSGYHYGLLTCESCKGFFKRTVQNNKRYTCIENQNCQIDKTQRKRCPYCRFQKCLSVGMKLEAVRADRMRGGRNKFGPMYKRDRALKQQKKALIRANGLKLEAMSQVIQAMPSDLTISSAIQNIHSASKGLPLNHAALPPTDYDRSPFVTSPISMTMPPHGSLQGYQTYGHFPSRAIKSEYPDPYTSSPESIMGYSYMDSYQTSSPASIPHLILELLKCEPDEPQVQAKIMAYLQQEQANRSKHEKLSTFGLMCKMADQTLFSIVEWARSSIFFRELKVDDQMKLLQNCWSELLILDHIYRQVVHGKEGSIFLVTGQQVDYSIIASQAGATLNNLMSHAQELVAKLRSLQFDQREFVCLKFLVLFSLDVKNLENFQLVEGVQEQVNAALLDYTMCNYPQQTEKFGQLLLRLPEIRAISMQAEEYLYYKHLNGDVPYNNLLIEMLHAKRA

SMILES: O=C(O)c1ccc(Cl)c2c1C1C=CCC1C(c1ccccc1F)N2 (configuration not stated)
- IC50 [1]: > 99 µM (inactive)
- IC50 [2]: 27.4 µM (inactive)

SMILES: CCOC(=O)c1cc2sccc2n1CC(=O)Nc1ccc2c(c1)OCCO2
- IC50 [3]: 35.9 µM (inactive)
- IC50 (Steroidogenic factor 1): 15.7 µM (inactive)
- IC50 [4]: 35.9 µM (inactive)

SMILES: COc1ccccc1NS(=O)(=O)c1ccc(C)c(C(=O)NCC(c2ccco2)N2CCCCC2)c1 (configuration not stated)
- IC50 [5]: 0.778 µM (active)
- IC50 [6]: 0.409 µM (active)

SMILES: CCc1cc(O)nc(SCC(=O)Nc2ccc3c(c2)OCCO3)n1
- IC50 [3]: 35.9 µM (inactive)
- IC50 (Steroidogenic factor 1): 12 µM (inactive)
- IC50 [4]: 35.9 µM (inactive)

SMILES: COc1ccc(CSc2nc3nc(C)cc(C)n3n2)cc1F
- IC50 [5]: 2.4 µM (active)
- IC50 [6]: 11.2 µM (active)

SMILES: CCOc1ccccc1N1C(=O)C(=O)N(CC(=O)c2ccc[nH]2)C1=O
- IC50 [1]: > 99 µM (inactive)
- IC50 [2]: > 99 µM (inactive)

SMILES: Cc1ccc(NC(=S)NC(=O)c2ccc(-c3ccc(Cl)cc3)o2)c(O)c1
- EC50 [7]: 7.63 µM (active)
- EC50 (Streptococcus): 9.04 µM (active)
- EC50 (Melanocortin receptor 4): > 89.2 µM (inactive)

SMILES: COc1cc(/C=C2\SC(Nc3ccccc3OC)=NC2=O)ccc1O
- CC50 [8]: 100 µM (active)
- IC50 [9]: 22.2 µM (active)

SMILES: COc1cc(-c2cc(NC=O)c3ncc(-c4cccc(C(F)(F)F)c4)n3c2)cc(OC)c1OC
- IC50 (H9c2): 51.3 µM (inactive)
- EC50 (Melanocortin receptor 4): > 89.2 µM (inactive)

SMILES: NC(=O)[C@H]1CC2(CC(c3cccc(NC(=O)COc4ccc(Cl)cc4)c3)=NO2)CN1C(=O)CC(c1ccccc1)c1ccccc1 (some centres not stated)
- IC50 [10]: 12.7 µM (active)
- IC50 [11]: 37.7 µM (active)

SMILES: N#Cc1c(NC(=O)c2cnn3cc(Br)cnc23)sc2c1CCC2
- IC50 [12]: > 99 µM (inactive)
- IC50 (Caspase-3): > 99 µM (inactive)
- IC50 [13]: > 99 µM (inactive)
- IC50 [14]: > 99 µM (inactive)
